What is called inhibition is how much of the control response was suppressed. The term IC50 denotes the concentration that inhibits the measured activity by half.

The results in this text go back to patent publication US20140221429A1, “HETEROCYCLIC SCHIFF'S BASES AS NOVEL AND NEW ANTIGLYCATION AGENTS” (priority 2013, published 2014).

The data set concerns the target T1, bovine serum albumin (BSA-methylglyoxal glycation) (Bos taurus, UniProt P02769).
T1 construct: purchased Merck Marker Pvt; Ltd. (Germany)
The data set is described as follows: in vitro BSA-MG glycation model (antiglycation assay). The data set is classed as biochemical. The following applies: for inhibition at 1000 µM: read-out: inhibition of protein glycation. The procedure:
Bovine Serum Albumin (BSA) was purchased from Merck Marker Pvt. Ltd. (Germany), rutin and methylglyoxal (MG) (40% aqueous solution) were from Sigma Aldrich (Japan), sodium dihydrogen phosphate (NaH2PO4), disodium hydrogen phosphate (Na2HPO4) and sodium azide (NaN3) were purchased from Scharlau Chemie, S. A. (Spain), while dimethyl sulphoxide (DMSO) was purchased from Fischer Scientific (UK).
The total reaction volume of the assay was 200 μL, having final concentrations of 10 mg/mL BSA, 14 mM methylglyoxal, and 1 mM test compounds. 10 mg/mL solution of BSA and 14 mM methylglyoxal was prepared in 0.1 M phosphate buffer (pH 7.4), containing sodium azide (NaN3) (30 mM) as antimicrobial agent, while 1 mM solutions of test compounds were prepared in the DMSO. Assay was performed in triplicate. Each reaction mixtures were comprised of 50 μL BSA, 50 μL methylglyoxal, 20 μL test compound and 80 μL phosphate buffer (pH 7.4). The reaction mixture was incubated under aseptic conditions at 37° C. for 9 days.
After completion of nine days of incubation, each sample was examined for the development of specific fluorescence (excitation 330 nm; emission 420 nm) against blank on a microtitre plate reader (SpectraMax M2, Molecular Devices, CA, USA).
The percent inhibition of AGE formation by the test sample versus control was calculated by using the following formula:
% Inhibition=([…]−Fluorescence of test sample/Fluorescence of the control)×100
The IC50 (i.e. the concentration of test samples that inhibit the process of glycation to 50%) was determined by monitoring the effect of various concentrations (ranges from 1000-50 μM) of test compounds. The IC50 values were calculated by using EZ-FIT Enzyme Kinetics Program (Perrella Scientific Inc., Amherst, USA). The antiglycation potential of test compounds was compared with rutin, which was used as standard inhibitor.

The mark [1] stands for this setting: Antiglycation Studies IC50 ± SEM, BSA-MG model, 10 mg/mL BSA, 14 mM methylglyoxal, 37° C., 9 days, fluorescence ex 330/em 420 nm.

“And” between values parts separate entries of the source, which are not always exact repeats. Equal values may be shown once. Read-outs that look alike come from different tables or passages of the source.

T1 sequence (P02769 25-607): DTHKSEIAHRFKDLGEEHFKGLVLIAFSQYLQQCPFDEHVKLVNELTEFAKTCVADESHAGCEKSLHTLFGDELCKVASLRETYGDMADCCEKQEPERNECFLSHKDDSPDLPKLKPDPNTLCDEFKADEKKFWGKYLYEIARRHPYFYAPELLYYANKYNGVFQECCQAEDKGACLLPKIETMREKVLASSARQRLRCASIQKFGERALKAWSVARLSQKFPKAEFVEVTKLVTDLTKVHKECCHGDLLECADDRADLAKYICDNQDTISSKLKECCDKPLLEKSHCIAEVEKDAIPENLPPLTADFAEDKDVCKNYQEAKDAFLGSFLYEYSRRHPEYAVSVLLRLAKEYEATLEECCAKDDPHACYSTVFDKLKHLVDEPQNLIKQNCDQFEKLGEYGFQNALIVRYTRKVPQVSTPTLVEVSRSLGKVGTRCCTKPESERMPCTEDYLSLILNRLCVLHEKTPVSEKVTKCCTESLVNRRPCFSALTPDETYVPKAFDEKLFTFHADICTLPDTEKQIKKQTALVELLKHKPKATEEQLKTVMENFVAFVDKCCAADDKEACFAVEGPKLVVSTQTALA

Turning to `O=C(NN=Cc1cccc([N+](=O)[O-])c1)c1ccccc1` [Compound 1, N′-(3-Nitrobenzylidene)benzohydrazide], the “Antiglycation Studies IC50 ± SEM” value is reported as “Inactive”, the “antiglycation activity (in words)” value was “inactive” and the inhibition at 1000 µM is less than 50%.

Turning to `O=C(NN=Cc1ccccc1[N+](=O)[O-])c1ccccc1` [Compound 2, N′-(2-Nitrobenzylidene)benzohydrazide], the “Antiglycation Studies IC50 ± SEM” value is on record as “Inactive”, the “antiglycation activity (in words)” value was “inactive” and the inhibition at 1000 µM was less than 50%.

Compound `O=C(NN=Cc1ccco1)c1cccs1` [Compound 3, 2-Thiophenecarboxylic acid, (2-furanylmethylene)hydrazide (9CI)] displayed a concentration for half-maximal inhibition (IC50) under setting [1] of 520.8 ± 1.8 µM. Further, under “BSA-MG model”, the “antiglycation activity (in words)” value is given as “moderate inhibition”.

`Cc1ccc(C=NNC(=O)c2cccs2)o1` [Compound 4, 2-Thiophencarboxylic acid, [(5-methyl-2-furanyl)methylene] hydrazide (9CI)]: the half-maximal inhibitory concentration (IC50) is, setting by setting: (Antiglycation IC50 (unit printed as μ), BSA-MG model assay) 442.8 ± 0.68 µM; under setting [1], 442.8 ± 0.68 µM. Besides, the “antiglycation activity (in words)” value (BSA-MG model) is listed as “moderate inhibition”.

Consider `C(=NNc1ccccn1)c1ccccn1` [Compound 5, 1,3-Bis(2′-pyridyl)-1,2-diazapropen-2-ene], for which the IC50 under setting [1] worked out at 397.2 ± 2.2 µM.

Take `C(=Nc1ccc(Cc2ccc(N=Cc3ccccn3)cc2)cc1)c1ccccn1` [Compound 6, Bis[4-(2-pyridylmethyleneamino)phenyl]methane]: the IC50 under setting [1] is 862.8 ± 3.3 µM.

For `C[C@@H]1O[C@@H](OC[C@H]2O[C@@H](Oc3c(-c4ccc(O)c(O)c4)oc4cc(O)cc(O)c4c3=O)[C@H](O)[C@@H](O)[C@@H]2O)[C@H](O)[C@H](O)[C@H]1O` [Rutin, reference compound], the IC50 (BSA-MG model, 10 mg/mL BSA, 14 mM methylglyoxal, 37° C., 9 days, fluorescence ex 330/em 420 nm, read-out: Antiglycation Studies IC50 ± SEM) is 294 µM and 295 µM.
